The text below walks through data of patent US11236086B2, “Substituted pyrrolopyridines as inhibitors of activin receptor-like kinase” (BLUEPRINT MEDICINES CORPORATION, priority 2017, dated 2022).

Experiment [1] concerns the target T1, human ALK2 R206H (Homo sapiens, UniProt Q04771, R206H).
T1 construct: expressed in transfected cells; host or cells: HEK293 (ATCC CRL1573), lentivirus transduction, blasticidin selection
T1 sequence (Q04771 21-509 R206H): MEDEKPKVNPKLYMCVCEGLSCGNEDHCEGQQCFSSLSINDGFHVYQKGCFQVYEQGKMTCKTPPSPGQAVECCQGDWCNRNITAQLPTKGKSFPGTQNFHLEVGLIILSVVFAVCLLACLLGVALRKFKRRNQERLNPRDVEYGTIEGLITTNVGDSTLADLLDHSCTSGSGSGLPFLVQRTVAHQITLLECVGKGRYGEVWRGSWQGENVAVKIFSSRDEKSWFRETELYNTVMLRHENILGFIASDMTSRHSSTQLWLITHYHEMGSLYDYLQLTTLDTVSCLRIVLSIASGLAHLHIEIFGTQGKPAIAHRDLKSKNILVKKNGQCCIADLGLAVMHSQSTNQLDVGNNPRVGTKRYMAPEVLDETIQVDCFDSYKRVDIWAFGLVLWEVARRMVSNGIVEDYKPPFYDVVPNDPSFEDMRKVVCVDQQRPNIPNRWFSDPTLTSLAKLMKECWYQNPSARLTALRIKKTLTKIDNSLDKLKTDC
In words: Cell-based ALK2-R206H cell activity assay (Smad1-Ser463/Ser465 phosphorylation by AlphaLISA in HEK293-ALK2-R206H cells). The note with it: phospho-Smad1 AlphaLISA, read-out: Cell Line (Cell Assay, IC50 class). The procedure:
Example 11. Cell-Based ALK2-R206H Cell Activity Assay
A HEK293 (ATCC, Cat No. CRL1573) based stable cell line expressing human ALK2 R206H cDNA (synthesized by GeneScript, Piscataway, N.J.) and a FLAG tag at the C-terminus was generated by lentivirus transduction and subsequent blasticidin (Life Technologies, Cat No. A1113902) selection at 10 μg/ml for >2 wks. This cell line was named HEK293-ALK2-R206H.
B. Measurement of Smad1-Ser463/Ser465 Phosphorylation by AlphaLISA
HEK293-ALK2-R206H cells were grown, harvested, and then resuspended in serum-free, phenol red-free DMEM high glucose media (Life Technologies, Cat No. 31053). The media also contained 50 units/ml penicillin and 50 μg/ml streptomycin (Life Technologies, Cat. No. 15070-063). HEK293-ALK2-R206H cells were then plated in white opaque 384-wells microplates (2×10^4/well) (OptiPlate-384, PerkinElmer, Waltham, Mass., Cat No. 6007299) overnight (>16h) at 37° C. 5% CO2 for use in the assay.
Test compounds were first diluted to 4 mM or 0.4 mM and then serially diluted 3-fold into 10 different concentrations using DMSO. Each concentration of compound was further diluted 40-fold with phenol red-free DMEM (Life Technologies, Cat No. 31053). 2 μl of the diluted compounds were then dispensed into the HEK293-ALK2-R206H cell-containing wells of the microplates in duplicates. In this way, each compound was tested in 10 doses (3-fold serial dilution with the top concentration being 10 μM or 1 μM). Liquid handling was achieved using a Bravo Automated Liquid Handling Platform (Agilent Technologies). DMSO without compound was used as a negative control. The positive control was 1 μM LDN193189, a known bone morphogenetic protein (BMP inhibitor).
After 2-3 hours of incubation with test compound or control, the cells were lysed and signal was developed using ALPHASCREEN® SUREFIRE® SMAD1 (p-Ser463/465) cellular kinase assay kit (PerkinElmer, Cat No. TGRSM1S10K) following the manufacturer's recommended protocol. The microplates were read using Perkin Elmer ENVISION® plate reader (emission […]). The signal reflected the level of phospho-Ser/463/465-Smad1 in the lysate. The raw data were plotted using the DMSO negative and LDN193189 positive controls as the 0% and 100% inhibition, respectively. The 10-point dose response curve was used to calculate the IC50 values.
The results of this assay are shown in Table 3 in the column labeled “Cell Assay” wherein “A” represents an IC50 of less than or equal to 100 nM; “B” an IC50 of greater than 100 nM and less than or equal to 500 nM; “C” an IC50 of greater than 500 nM. Blank values in the table indicate that the particular compound was not tested in this assay.
A general note: Alpha assays give light when donor and acceptor beads are brought close together.

The target in experiment [2] is T2, ALK2R206H (mutant ALK2, N-terminally tagged with GST) (Homo sapiens, UniProt Q04771, R206H).
T2 construct: purchased Carna Bioscience or ThermoFisher 09-148 or PV6232
T2 sequence (Q04771 21-509 R206H): T1 sequence (Q04771 21-509 R206H)
In words: ALK binding assay (LANTHASCREEN TR-FRET competitive binding, displacement of Kinase Tracer 178). The note with it: read-out: Binding Assay (IC50 class). The procedure: Example 10 ALK Binding Assays
Binding assays were conducted using the LANTHASCREEN® technology (ThermoFisher Scientific). LANTHASCREEN® is a competitive binding, displacement assay where the assumed steady state occupancy of the binding site is measured using a time-resolved, fluorescence energy transfer (TR-FRET) readout between a fluorescent tracer and Europium (Eu)-tagged antibody specific for the kinase or expression tag (e.g., GST) of interest. Displacement of the tracer by a compound of the disclosure reduces, and is directly proportional to, the TR-FRET between the tracer and the antibody. Tracer was used at a concentration equal to or near to its Kd for the kinase. The Eu-tagged antibody was typically used in excess to ensure sampling of all competent protein capable of binding the tracer.
For these assays, a mutant ALK2 was used that was N-terminally tagged with GST (ALK2R206H Carna Bioscience (09-148) or ALK2R206H ThermoFisher (PV6232)); a Eu-tagged anti-GST antibody (ThermoFisher) and Kinase Tracer 178 (ThermoFisher).
In all cases, the kinase (2-5 nM) was mixed with Eu-tagged antibody (4-10 nM) mix and tracer (50 nM) were incubated with test compound titrations prepared in 100% DMSO (1% DMSO final) for 30 minutes at room temperature. All reagents and compounds were dissolved in Kinase Buffer A (ThermoFisher) to achieve the final concentration. The plates were read on a PerkinElmer EnVision® multilabel plate reader or a BioTek Synergy Neo plate reader, and the assay signal was represented as a ratio of the TR-FRET emission (λex 330 nm, λ^em […] and λ^em 665 nm). This readout was normalized to 0% and 100% inhibited control wells, plotted against inhibitor concentration, and fitted to a 4-parameter log dose response curve.
The results of this assay are shown in Table 3 in the column labelled “Binding Assay” wherein “A” represents an IC50 of less than or equal to 10 nM; “B” represents an IC50 of greater than 10 nM and less than or equal to 50 nM; and “C” represents an IC50 of greater than 50 nM. Blank values in the table indicate that the particular compound was not tested in this assay.
Background: TR-FRET usually uses a lanthanide donor and a delayed reading to cut background.

In the case of `CC(C)OC(=O)N1CCN(c2ccnc3[nH]c(-c4cnn(C)c4)cc23)CC1` [Compound 41], the IC50 is 0.1 to 0.5 µM in experiment [1] and not above 0.01 µM in experiment [2].

In the case of `C[C@H](F)COC(=O)N1CCN(c2ccnc3[nH]c(-c4cnn(C)c4)cc23)CC1` [Compound 116], the IC50 in experiment [1] was not above 0.1 µM; in experiment [2], not above 0.01 µM.

As to `CC#Cc1c(-c2cnn(C)c2)[nH]c2nccc(N3CCN(C(=O)OC4COC4)CC3)c12` [Compound 285], the figures for the IC50 in experiment [1] and in experiment [2] were not above 0.1 µM and not above 0.01 µM, respectively.

Take `O=C(OC1COC1)N1CCN(c2ccnc3[nH]c(-c4ccc(C5(O)CCC5)cc4)cc23)CC1` [Compound 392]: the results for the half-inhibitory concentration (IC50) in experiment [1] and in experiment [2] were not above 0.1 µM and not above 0.01 µM, respectively.

For `Cn1cc(-c2[nH]c3nccc(N4CCN(C(=O)OCC(F)F)CC4)c3c2C#N)cn1` [Compound 256], the half-inhibitory concentration (IC50) in experiment [1] was not above 0.1 µM; in experiment [2], not above 0.01 µM.

`O=C(OC1COC1)N1CCN(c2ccnc3[nH]c(-c4ccc(C5(O)CCOCC5)cc4)cc23)CC1` [Compound 445]: the IC50 in experiment [1] was not above 0.1 µM; in experiment [2], not above 0.01 µM.

For the molecule `Cn1cc(-c2cc3c(N4CCN(C(=O)OC5CC5)CC4)ccnc3[nH]2)cn1` [Compound 30], the IC50 is not above 0.1 µM in experiment [1] and not above 0.01 µM in experiment [2].

Take `CCN1CCN(c2ccc(-c3cc4c(N5CCN(C(=O)C6CC6)CC5)ccnc4[nH]3)c(OC(F)F)c2)CC1` [Compound 475]: the figures for the half-inhibitory concentration (IC50) in experiment [1] and in experiment [2] were not above 0.1 µM and not above 0.01 µM, respectively.

Regarding `Cn1cnc(-c2cc3c(N4CCN(C(=O)OC5CCC5)CC4)ccnc3[nH]2)c1` [Compound 76], the IC50 in experiment [1] was not above 0.1 µM; in experiment [2], not above 0.01 µM.

In the case of `Cc1nc(-c2[nH]c3nccc(N4CCN(C(=O)OC5COC5)CC4)c3c2C#N)cs1` [Compound 303], the IC50 in experiment [1] was not above 0.1 µM; in experiment [2] it was not above 0.01 µM.

In the case of `CC(C)OC(=O)N1CCN(c2ccnc3[nH]c(-c4cnn(C)c4)c(Cl)c23)CC1` [Compound 186], the half-inhibitory concentration (IC50) is 0.1 to 0.5 µM in experiment [1] and not above 0.01 µM in experiment [2].

Consider `CS(=O)(=O)N1CCc2nc(-c3cc4c(N5CCN(C(=O)OC6COC6)CC5)ccnc4[nH]3)sc2C1` [Compound 474], for which the figures for the half-maximal inhibitory concentration (IC50) in experiment [1] and in experiment [2] were not above 0.1 µM and not above 0.01 µM, respectively.

`Cn1cc(-c2[nH]c3nccc(N4CCN(C(=O)OC5CC5)CC4)c3c2C#N)cn1` [Compound 129]: the concentration for half-maximal inhibition (IC50) in experiment [1] is not above 0.1 µM; in experiment [2] it was not above 0.01 µM.

For the molecule `Cn1cc(-c2[nH]c3nccc(N4CCN(C(=O)O[C@H]5C[C@H](F)C5)CC4)c3c2C#N)cn1` [Compound 295], the figures for the IC50 in experiment [1] and in experiment [2] were not above 0.1 µM and not above 0.01 µM, respectively.

As to `COc1ccc(-c2cc3c(N4CCN(C(=O)C5CC5)CC4)ccnc3[nH]2)c(F)c1` [Compound 138], in experiment [2], the IC50 is not above 0.01 µM.

Regarding `Cc1n[nH]c(C)c1-c1cc2c(N3CCN(C(=O)OC4COC4)CC3)ccnc2[nH]1` [Compound 157], the IC50 in experiment [2] was more than 0.05 µM.

On to `O=C(OC1COC1)N1CCN(c2ccnc3[nH]c(-c4cnccn4)cc23)CC1` [Compound 74], for which the IC50 in experiment [2] lay in the range of 0.01 to 0.05 µM.

Take `O=C(C1CC1)N1CCN(c2ccnc3[nH]c(-c4cccnc4)cc23)CC1` [Compound 4]: in experiment [2], the IC50 fell in the range of 0.01 to 0.05 µM.

`Cn1cc(-c2cc3c(N4CCN(C(=O)O[C@@H]5CCOC5)CC4)ccnc3[nH]2)cn1` [Compound 154]: the IC50 in experiment [2] is not above 0.01 µM.

As to `Cc1coc(-c2cc3c(N4CCN(C(=O)OC5COC5)CC4)ccnc3[nH]2)n1` [Compound 107], in experiment [2], the IC50 lay in the range of 0.01 to 0.05 µM.

For the molecule `CCS(=O)(=O)CCOC(=O)N1CCN(c2ccnc3[nH]c(-c4cnn(C)c4)cc23)CC1` [Compound 384], the IC50 in experiment [2] is 0.01 to 0.05 µM.

On to `Cc1nnc(-c2cc3c(N4CCN(C(=O)OC5COC5)CC4)ccnc3[nH]2)s1` [Compound 181], for which, in experiment [2], the IC50 is not above 0.01 µM.

In the case of `Cn1cc(-c2cc3c(N4CCN(C(=O)CCC5CCCC5)CC4)ccnc3[nH]2)cn1` [Compound 206], the 50% inhibitory concentration (IC50) in experiment [2] lay in the range of 0.01 to 0.05 µM.

For the molecule `Cc1cccc(-c2cc3c(N4CCN(C(=O)C5CC5)CC4)ccnc3[nH]2)c1` [Compound 15], in experiment [2], the half-inhibitory concentration (IC50) was 0.01 to 0.05 µM.

In the case of `CCOC(=O)N1CCN(c2ccnc3[nH]c(-c4scnc4C#N)cc23)CC1` [Compound 95], in experiment [2], the half-maximal inhibitory concentration (IC50) is not above 0.01 µM.

In general, IC50 refers to the point on the concentration scale where inhibition reaches its midpoint.
